Laboratory results reported in patent publication US6455551B1, “Use of 1-hydroxy-2-pyridones for treating mucosa diseases which are difficult to treat” (Aventis Pharma Deutschland GmbH, priority 1996, dated 2002).
≈ marks a conversion by molar mass, not a printed value. Read-outs that look alike come from different tables or passages of the source.

How the values were obtained:
Format in all cases: cell-based
Candida albicans = assay: Microtiter dilution MIC test in RPMI 1640 medium, Candida albicans strains; conditions: read-out: Minimum inhibitory concentration (MIC)
Procedure: (§1) Fluconazole-resistant strains of Candida albicans are isolated from patients who have been treated, for example, with fluconazole for more than one year. For this purpose, samples are taken from the patients' mouths and applied, undiluted or diluted 1:100, to an RPMI 1640 agar (Gibco/BRL, Life Technologies GmbH, D-76339 Eggenstein) which contains about 1.0 μg/ml fluconazole. Resistant Candida albicans strains are isolated, further purified on agar and stored isolated in peptone/dextrose slant agar tubes.
(§2) The activity of Compound 1 and fluconazole is determined by the microtiter dilution technique in RPMI 1640 medium. The growth medium RPMI 1640 buffered with 0.165 M morpholinopropanesulfonic acid pH 7.0 is introduced into 96-well microtiter plates. Serial dilutions by a factor of 2 are prepared for Compound 1 and fluconazole to result in final concentrations of 256 to 0.002 μg/ml of Compound 1 and fluconazole. The microtiter plates prepared in this way are incubated with the Candida strains to be tested. For comparison purposes, the two Candida albicans strains ATCC 90028 and 90029 which are not resistant to fluconazole are included in the test. The initial cell count is 1-5 ×10^3 colony-forming units per ml of growth medium. The microtiter plates are incubated at 35° C. for 48 hours. The minimum inhibitory concentration is determined by photometry at 510 nm.

Candida krusei = assay: Microtiter dilution MIC test in RPMI 1640 medium, Candida krusei strains; conditions: Pichia kudriavzevii, 48 h, read-out: Minimum inhibitory concentration (MIC)
Procedure: as §1, §2

Candida glabrata = assay: Microtiter dilution MIC test in RPMI 1640 medium, Candida glabrata strains; conditions: Nakaseomyces glabratus, 48 h, read-out: Minimum inhibitory concentration (MIC)
Procedure: as §2

Candida guillermondii = assay: Microtiter dilution MIC test in RPMI 1640 medium, Candida guillermondii strain; conditions: Candida guillermondii B47; 35° C., 48 hours; read-out: Minimum inhibitory concentration (MIC)
Procedure: as §1, §2

Trichomonas vaginalis = assay: In vitro activity on protozoa, Trichomonas vaginalis
Text: (§3) In vitro activity of the Compound 1 on protozoa

Entamoeba histolytica = assay: In vitro activity on protozoa, Entamoeba histolytica
Text: as §3

[1] = 48 h, Candida albicans 94/3, 35° C.
[2] = 48 h, Candida albicans 94/14, 35° C.
[3] = 48 h, Candida albicans 94/57, 35° C.
[4] = 48 h, Candida albicans 94/62, 35° C.
[5] = 48 h, Candida albicans 94/90, 35° C.
[6] = 48 h, Candida albicans 94/118, 35° C.
[7] = 48 h, Candida albicans 94/134, 35° C.
[8] = 48 h, Candida albicans 94/138, 35° C.
[9] = 48 h, Candida albicans 94/222, 35° C.
[10] = 48 h, Candida albicans 94/231, 35° C.
[11] = 48 h, Candida albicans B6, 35° C.
[12] = 48 h, Candida albicans B70, 35° C.
[13] = 48 h, Candida albicans B75, 35° C.
[14] = ATCC90028, 48 h, Candida albicans ATCC 90028 (not resistant to fluconazole), 35° C.
[15] = ATCC90029, 48 h, Candida albicans ATCC 90029 (not resistant to fluconazole), 35° C.

Row | MIC (Candida albicans; [1]) [µg/mL] | MIC (Candida albicans; [2]) [µg/mL] | MIC (Candida albicans; [3]) [µg/mL] | MIC (Candida albicans; [4]) [µg/mL] | MIC (Candida albicans; [5]) [µg/mL] | MIC (Candida albicans; [6]) [µg/mL] | MIC (Candida albicans; [7]) [µg/mL] | MIC (Candida albicans; [8]) [µg/mL] | MIC (Candida albicans; [9]) [µg/mL] | MIC (Candida albicans; [10]) [µg/mL] | MIC (Candida albicans; [11]) [µg/mL] | MIC (Candida albicans; [12]) [µg/mL] | MIC (Candida albicans; [13]) [µg/mL] | MIC (Candida albicans; [14]) [µg/mL] | MIC (Candida albicans; [15]) [µg/mL] | MIC (Candida krusei; Candida krusei B1, 35° C.) [µg/mL] | MIC (Candida krusei; Candida krusei B4, 35° C.) [µg/mL] | MIC (Candida glabrata; Candida glabrata B12, 35° C.) [µg/mL] | MIC (Candida glabrata; Candida glabrata B14, 35° C.) [µg/mL] | MIC (Candida glabrata; Candida glabrata B18, 35° C.) [µg/mL] | SMILES | also measured
1 | 32 (≈ 104 µM) | 32 (≈ 104 µM) | > 256 | > 256 | > 256 | > 256 | > 256 | > 256 | > 256 | > 256 | 1 (≈ 3.27 µM) | > 256 | 2 (≈ 6.53 µM) | 0.5 (≈ 1.63 µM) | 1 (≈ 3.27 µM) | 32 (≈ 104 µM) | 16 (≈ 52.2 µM) | 4 (≈ 13.1 µM) | 2 (≈ 6.53 µM) | 8 (≈ 26.1 µM) | OC(Cn1cncn1)(Cn1cncn1)c1ccc(F)cc1F [Fluconazole, fluconazole, reference compound] | MIC (Candida glabrata; Candida glabrata B21, 35° C.): 8 µg/mL (≈ 26.1 µM); MIC (Candida glabrata; Candida glabrata B35, 35° C.): 8 µg/mL (≈ 26.1 µM); MIC (Candida glabrata; Candida glabrata B37, 35° C.): 16 µg/mL (≈ 52.2 µM); MIC (Candida glabrata; Candida glabrata B38, 35° C.): 16 µg/mL (≈ 52.2 µM); MIC (Candida glabrata; Candida glabrata B39, 35° C.): 8 µg/mL (≈ 26.1 µM); MIC (Candida glabrata; Candida glabrata B40, 35° C.): 16 µg/mL (≈ 52.2 µM); MIC (Candida glabrata; Candida glabrata B50, 35° C.): 16 µg/mL (≈ 52.2 µM); MIC (Candida glabrata; Candida glabrata B51, 35° C.): 32 µg/mL (≈ 104 µM); MIC (Candida guillermondii): 4 µg/mL (≈ 13.1 µM)
2 | 2 (≈ 5.59 µM) | 2 (≈ 5.59 µM) | 1 (≈ 2.79 µM) | 1 (≈ 2.79 µM) | 1 (≈ 2.79 µM) | 2 (≈ 5.59 µM) | 1 (≈ 2.79 µM) | 1 (≈ 2.79 µM) | 1 (≈ 2.79 µM) | 1 (≈ 2.79 µM) | 1 (≈ 2.79 µM) | 1 (≈ 2.79 µM) | 1 (≈ 2.79 µM) | 1 (≈ 2.79 µM) | 0.5 (≈ 1.4 µM) | 0.5 (≈ 1.4 µM) | 1 (≈ 2.79 µM) | 0.5 (≈ 1.4 µM) | 0.5 (≈ 1.4 µM) | 0.5 (≈ 1.4 µM) | Cc1cc(COc2ccc(Oc3ccc(Cl)cc3)cc2)n(O)c(=O)c1 [Compound 1, 6-[4-(4-chlorophenoxy)phenoxymethyl]-1-hydroxy4-methyl-2(1H)-pyridone] | MIC (Candida glabrata; Candida glabrata B21, 35° C.): 1 µg/mL (≈ 2.79 µM); MIC (Candida glabrata; Candida glabrata B35, 35° C.): 1 µg/mL (≈ 2.79 µM); MIC (Candida glabrata; Candida glabrata B37, 35° C.): 1 µg/mL (≈ 2.79 µM); MIC (Candida glabrata; Candida glabrata B38, 35° C.): 1 µg/mL (≈ 2.79 µM); MIC (Candida glabrata; Candida glabrata B39, 35° C.): 0.5 µg/mL (≈ 1.4 µM); MIC (Candida glabrata; Candida glabrata B40, 35° C.): 1 µg/mL (≈ 2.79 µM); MIC (Candida glabrata; Candida glabrata B50, 35° C.): 0.5 µg/mL (≈ 1.4 µM); MIC (Candida glabrata; Candida glabrata B51, 35° C.): 0.5 µg/mL (≈ 1.4 µM); MIC (Candida guillermondii): 1 µg/mL (≈ 2.79 µM); MIC (Trichomonas vaginalis; 2 of n = 5 strains investigated): 125 µg/mL (≈ 349 µM); MIC (Trichomonas vaginalis; 3 of n = 5 strains investigated): 31.2 µg/mL (≈ 87.2 µM); MIC (Entamoeba histolytica; 3 of n = 4 strains investigated): 62.5 µg/mL (≈ 175 µM); MIC (Entamoeba histolytica; remaining strain of n = 4 strains investigated (count not given)): 31.2 µg/mL (≈ 87.2 µM)
